This experiment concerns BDF1 mice, P388 leukemia ip, median survival T/C. As to the kind of experiment: NCI In Vivo Anticancer Drug Screen. Data for tumor model P388 Leukemia (intraperitoneal) in B6D2F1 (BDF1) mice. As to conditions: endpoint: median survival time, higher = longer survival. The method, boiled down: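 Transplantable tumour in mice; compound vs vehicle dosing; survival scored; ratio of treated to control reported.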

Setting [1] is: dose: 50.0 mg/kg/injection, schedule: Q01DX009 (ip), vehicle: saline with Tween-80.
[2] abbreviates: dose: 100.0 mg/kg/injection, schedule: Q01DX009 (ip), vehicle: saline with Tween-80.
Setting [3] is: dose: 200.0 mg/kg/injection, schedule: Q01DX009 (ip), vehicle: saline with Tween-80.
[4] abbreviates: dose: 100.0 mg/kg/injection, schedule: Q04DX003 (ip), vehicle: saline.
The mark [5] stands for this setting: dose: 200.0 mg/kg/injection, schedule: Q04DX003 (ip), vehicle: saline.
Setting [6] is: dose: 400.0 mg/kg/injection, schedule: Q04DX003 (ip), vehicle: saline.
Where [7] appears, read: dose: 100.0 mg/kg/injection, schedule: Q01DX009 (ip), vehicle: Klucel (hydroxypropylcellulose) (HPC).
The mark [8] stands for this setting: dose: 200.0 mg/kg/injection, schedule: Q01DX009 (ip), vehicle: Klucel (hydroxypropylcellulose) (HPC).
[9] abbreviates: dose: 400.0 mg/kg/injection, schedule: Q01DX009 (ip), vehicle: Klucel (hydroxypropylcellulose) (HPC).
The mark [10] stands for this setting: dose: 400.0 mg/kg/injection, schedule: Q01DX009 (ip), vehicle: saline with Tween-80.

Several values for one entry are separate records, joined by “and”; a condition that tells them apart may be missing. Identical values can stand only once. Inconclusive results and toxic doses are left out.

As for `FC(F)(F)C(Cl)Br` (stereo not given), the T/C was 90 % of control (dose: 100.0 mg/kg/injection, schedule: Q01DX001 (ip), vehicle: saline); 86 % of control (dose: 150.0 mg/kg/injection, schedule: Q04DX003 (ip), vehicle: saline); 90 % of control (dose: 200.0 mg/kg/injection, schedule: Q01DX001 (ip), vehicle: saline); 100 % of control (dose: 225.0 mg/kg/injection, schedule: Q04DX003 (ip), vehicle: saline); 86 % of control (dose: 335.0 mg/kg/injection, schedule: Q04DX003 (ip), vehicle: saline); 100 % of control (dose: 400.0 mg/kg/injection, schedule: Q01DX001 (ip), vehicle: saline).
As for `C=CCN1C=CC=C/C1=C\C=C(/C#N)C(=O)OCC`, the T/C is 99 % of control under setting [1], 90 % of control under setting [2] and 103 % of control under setting [3].
In the case of `O=C1C=C(C2CCCCC2)C(=O)C2CCCCC12` (stereo not given), the T/C runs as follows: under setting [4], 110 % of control; under setting [5], 105 % of control; under setting [6], 120 % of control.
Consider `CC/C(=C(\CC)c1ccc(OCCN(CC)CC)cc1)c1ccc(OCCN(CC)CC)cc1`, for which the T/C by setting is: (dose: 12.5 mg/kg/injection, schedule: Q01DX010 (ip), vehicle: carboxymethylcellulose (CMC)) 100 % of control; (dose: 25.0 mg/kg/injection, schedule: Q01DX010 (ip), vehicle: carboxymethylcellulose (CMC)) 105 % of control.
`O=C1OC(N2Cc3ccccc3C2=O)c2ccccc21` (stereo not given): the T/C runs as follows: under setting [1], 100 % of control; under setting [2], 100 % of control; under setting [3], 94 % of control.
Regarding `CCCN1CCC2(CC1)COCc1ccccc12`, the T/C by setting is: (dose: 50.0 mg/kg/injection, schedule: Q04DX002 (ip), vehicle: saline with Tween-80) 98 % of control; (dose: 100.0 mg/kg/injection, schedule: Q04DX002 (ip), vehicle: saline with Tween-80) 91 % of control.
With `CCCC1([N+](C)(C)C)CSC1CC` (stereo not given), the T/C runs as follows: (dose: 12.5 mg/kg/injection, schedule: Q04DX002 (ip), vehicle: saline) 105 % of control; (dose: 25.0 mg/kg/injection, schedule: Q04DX002 (ip), vehicle: saline) 103 % of control; (dose: 50.0 mg/kg/injection, schedule: Q04DX002 (ip), vehicle: saline) 96 % of control.
In the case of `C=C(C)C(=O)OCC1CO1` (stereo not given), the T/C runs as follows: (dose: 25.0 mg/kg/injection, schedule: Q01DX009 (ip), vehicle: water) 112 % of control; (dose: 50.0 mg/kg/injection, schedule: Q01DX009 (ip), vehicle: water) 96 % of control; (dose: 50.0 mg/kg/injection, schedule: Q01DX010 (ip), vehicle: saline) 100 % of control; (dose: 100.0 mg/kg/injection, schedule: Q01DX009 (ip), vehicle: water) 99 % of control; (dose: 100.0 mg/kg/injection, schedule: Q01DX010 (ip), vehicle: saline) 100 % of control; (dose: 200.0 mg/kg/injection, schedule: Q01DX009 (ip), vehicle: water) 122 % of control. Moreover, the T/C (dose: 200.0 mg/kg/injection, schedule: Q01DX010 (ip), vehicle: saline) is 104 % of control.
Take `CCCNC(=O)OCC#CC#CCOC(=O)NCCC`: the T/C is, setting by setting: under setting [7], 86 % of control; (dose: 100.0 mg/kg/injection, schedule: Q04DX003 (ip), vehicle: Klucel (hydroxypropylcellulose) (HPC)) 90 % of control; under setting [8], 100 % of control; (dose: 200.0 mg/kg/injection, schedule: Q04DX003 (ip), vehicle: Klucel (hydroxypropylcellulose) (HPC)) 95 % of control; under setting [9], 104 % of control; (dose: 400.0 mg/kg/injection, schedule: Q04DX003 (ip), vehicle: Klucel (hydroxypropylcellulose) (HPC)) 113 % of control.
With `CC(=O)NC1CC(=O)N(c2ccccc2)C1` (stereo not given), the T/C by setting is: (dose: 87.5 mg/kg/injection, schedule: Q01DX009 (ip), vehicle: saline with Tween-80) 102 % of control; (dose: 175.0 mg/kg/injection, schedule: Q01DX009 (ip), vehicle: saline with Tween-80) 111 % of control; (dose: 350.0 mg/kg/injection, schedule: Q01DX009 (ip), vehicle: saline with Tween-80) 100 % of control.
As for `CSc1ncc(Br)c(C(=O)O)n1`, the T/C is, setting by setting: under setting [2], 95 % of control; under setting [3], 100 % of control; under setting [10], 104 % of control.
Turning to `CCC[CH2][Sn]([CH2]CCC)[CH2]CCC.CCC[CH2][Sn]([CH2]CCC)[CH2]CCC`, the T/C was 110 % of control (dose: 3.75 mg/kg/injection, schedule: Q01DX009 (ip), vehicle: saline with Tween-80); 92 % of control (dose: 7.5 mg/kg/injection, schedule: Q01DX009 (ip), vehicle: saline with Tween-80); 112 % of control (dose: 13.0 mg/kg/injection, schedule: Q04DX003 (ip), vehicle: saline with Tween-80); 114 % of control (dose: 15.0 mg/kg/injection, schedule: Q01DX009 (ip), vehicle: saline with Tween-80); 100 % of control (dose: 20.0 mg/kg/injection, schedule: Q04DX003 (ip), vehicle: saline with Tween-80); 95 % of control (dose: 25.0 mg/kg/injection, schedule: Q01DX009 (ip), vehicle: Klucel (hydroxypropylcellulose) (HPC)). Besides, the T/C (dose: 30.0 mg/kg/injection, schedule: Q04DX003 (ip), vehicle: saline with Tween-80) was 108 % of control.
On to `CCOC(=O)NC(=O)CC`, for which the T/C (dose: 25.0 mg/kg/injection, schedule: Q01DX005 (ip), vehicle: saline) is 114 % of control; the T/C (dose: 25.0 mg/kg/injection, schedule: Q01DX009 (ip), vehicle: saline) is 102 % of control; the T/C (dose: 50.0 mg/kg/injection, schedule: Q01DX005 (ip), vehicle: saline) is 114 % of control; the T/C (dose: 50.0 mg/kg/injection, schedule: Q01DX009 (ip), vehicle: saline) was 102 % of control; the T/C (dose: 50.0 mg/kg/injection, schedule: Q04DX003 (ip), vehicle: saline) is 103 % of control and 104 % of control; the T/C (dose: 100.0 mg/kg/injection, schedule: Q01DX005 (ip), vehicle: saline) was 96 % of control. Also, the T/C (dose: 100.0 mg/kg/injection, schedule: Q01DX009 (ip), vehicle: saline) is 115 % of control; the T/C under setting [4] was 96 % of control and 103 % of control and 213 % of control; the T/C (dose: 200.0 mg/kg/injection, schedule: Q01DX005 (ip), vehicle: saline) is 122 % of control; the T/C (dose: 200.0 mg/kg/injection, schedule: Q01DX009 (ip), vehicle: saline) was 112 % of control; the T/C under setting [5] was 105 % of control and 112 % of control and 114 % of control; the T/C (dose: 400.0 mg/kg/injection, schedule: Q01DX009 (ip), vehicle: saline) is 106 % of control. The T/C reads like this: under setting [6], 99 % of control and 113 % of control; (dose: 600.0 mg/kg/injection, schedule: Q04DX003 (ip), vehicle: saline) 114 % of control.
Regarding `[Cl][Pt+2][Cl].[NH-]CC1(C[NH-])CCC1`, the T/C by setting is: (dose: 0.4 mg/kg/injection, schedule: Q01DX009 (ip), vehicle: suspension in saline) 156 % of control; (dose: 0.79 mg/kg/injection, schedule: Q01DX009 (ip), vehicle: suspension in saline) 154 % of control; (dose: 1.56 mg/kg/injection, schedule: Q01DX009 (ip), vehicle: suspension in saline) 250 % of control; (dose: 3.12 mg/kg/injection, schedule: Q01DX009 (ip), vehicle: suspension in saline) 250 % of control; (dose: 6.25 mg/kg/injection, schedule: Q01DX009 (ip), vehicle: suspension in saline) 169 % of control; (dose: 12.5 mg/kg/injection, schedule: Q01DX009 (ip), vehicle: suspension in saline) 104 % of control.
Regarding `CCCCCCCCCCCCCCCCCCOc1cccc(C(F)(F)F)c1`, the T/C was 105 % of control (dose: 50.0 mg/kg/injection, schedule: Q01DX001 (ip), vehicle: saline with Tween-80); 100 % of control (dose: 100.0 mg/kg/injection, schedule: Q01DX001 (ip), vehicle: saline with Tween-80); 90 % of control (dose: 200.0 mg/kg/injection, schedule: Q01DX001 (ip), vehicle: saline with Tween-80).
Regarding `CCOC(=O)/C(C#N)=C1/CCCN1`, the T/C is 104 % of control under setting [2], 100 % of control under setting [3] and 100 % of control under setting [10].
For the molecule `CN1/C(=C/C=C(/N=C(C#N)C#N)c2ccccc2)C(C)(C)c2ccccc21`, the T/C is 95 % of control under setting [1], 98 % of control under setting [2] and 98 % of control under setting [3].
With `CN(/N=N/c1nc[nH]c1C(N)=O)C(C)(C)C`, the T/C reads like this: under setting [7], 117 % of control; under setting [8], 108 % of control; under setting [9], 88 % of control.
